# Data as given in patent US20250098679A1, “HERBICIDAL PYRIDONE DERIVATIVES” (SYNGENTA CROP PROTECTION AG, priority 2021, published 2025).
# Experiments:
# Type in all cases: in vivo
# Setaria faberi (SETFA) [1] = assay: Post-emergence Test, Setaria faberi (SETFA); parameters: key to percentage damage caused to the plant, SETFA (five-point scale): 5=81-100%, 4=61-80%, 3=41-60%, 2=21-40%, 1=0-20% damage; details: 250 g/Ha, evaluated after 13 days
# Outline: (§1)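 Spray application at 1000 g/ha unless otherwise stated. Damage was scored 13 days later as 1 (0-20%) to 5 (81-100%).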
# [2] = test system: Echinochloa crus-galli (ECHCG); assay: Post-emergence Test, Echinochloa crus-galli (ECHCG); parameters: key to percentage damage caused to the plant, ECHCG (five-point scale): 5=81-100%, 4=61-80%, 3=41-60%, 2=21-40%, 1=0-20% damage; details: 250 g/Ha, evaluated after 13 days
# Outline: as §1
# Zea mays (ZEAMX) [3] = assay: Pre-emergence Test, Zea mays (ZEAMX); details: 250 g/Ha (*), evaluated after 13 days
# Setaria faberi (SETFA) [4] = assay: Pre-emergence Test, Setaria faberi (SETFA); details: 250 g/Ha (*), evaluated after 13 days
# [5] = test system: Amaranthus palmeri (AMAPA); assay: Pre-emergence Test, Amaranthus palmeri (AMAPA); details: 250 g/Ha (*), evaluated after 13 days
# [6] = test system: Amaranthus retoflexus (AMARE); assay: Pre-emergence Test, Amaranthus retoflexus (AMARE); details: 250 g/Ha (*), evaluated after 13 days
# [7] = test system: Ipomoea hederacea (IPOHE); assay: Post-emergence Test, Ipomoea hederacea (IPOHE); parameters: key to percentage damage caused to the plant, IPOHE (five-point scale): 5=81-100%, 4=61-80%, 3=41-60%, 2=21-40%, 1=0-20% damage; details: 250 g/Ha, evaluated after 13 days
# Outline: as §1
# [8] = test system: Echinochloa crus-galli (ECHCG); assay: Pre-emergence Test, Echinochloa crus-galli (ECHCG); details: 250 g/Ha (*), evaluated after 13 days
# [9] = test system: Amaranthus palmeri (AMAPA); assay: Post-emergence Test, Amaranthus palmeri (AMAPA); parameters: key: 5=81-100%, 4=61-80%, 3=41-60%, 2=21-40%, 1=0-20% damage; details: 250 g/Ha, evaluated after 13 days
# Outline: as §1
# [10] = test system: Ipomoea hederacea (IPOHE); assay: Pre-emergence Test, Ipomoea hederacea (IPOHE); details: 250 g/Ha (*), evaluated after 13 days
# [11] = test system: Amaranthus retoflexus (AMARE); assay: Post-emergence Test, Amaranthus retoflexus (AMARE); parameters: key to percentage damage caused to the plant, AMARE (five-point scale): 5=81-100%, 4=61-80%, 3=41-60%, 2=21-40%, 1=0-20% damage; details: 250 g/Ha, evaluated after 13 days
# Outline: as §1
# Zea mays (ZEAMX) [12] = assay: Post-emergence Test, Zea mays (ZEAMX); parameters: key to percentage damage caused to the plant, ZEAMX (five-point scale): 5=81-100%, 4=61-80%, 3=41-60%, 2=21-40%, 1=0-20% damage; details: 250 g/Ha, evaluated after 13 days
# Outline: as §1
compound,measurement,setting,value
"CCn1c(Cn2nc(C(F)(F)F)cc2Cl)cc(=O)c(C(=O)O)c1-c1ccc(Cl)c(Cl)c1 [Compound 169, 6-[[5-chloro-3-(trifluoromethyl)pyrazol-1-yl]methyl]-2-(3,4-dichlorophenyl)-1-ethyl-4-oxo-pyridine-3-carboxylic acid]","percentage damage caused to the plant, SETFA (five-point scale)",Setaria faberi (SETFA) [1],4 (4=61-80%)
same,"percentage damage caused to the plant, ECHCG (five-point scale)",[2],3 (3=41-60%)
same,"Pre-emergence Test ZEAMX, percentage damage caused to the plant (five-point scale)",Zea mays (ZEAMX) [3],0
same,"Pre-emergence Test SETFA, percentage damage caused to the plant (five-point scale)",Setaria faberi (SETFA) [4],5 (5=81-100%)
same,"Pre-emergence Test AMAPA, percentage damage caused to the plant (five-point scale)",[5],1 (1=0-20%)
same,"Pre-emergence Test AMARE, percentage damage caused to the plant (five-point scale)",[6],1 (1=0-20%)
same,"percentage damage caused to the plant, IPOHE (five-point scale)",[7],4 (4=61-80%)
same,"Pre-emergence Test ECHCG, percentage damage caused to the plant (five-point scale)",[8],4 (4=61-80%)
same,"percentage damage caused to the plant, AMAPA (five-point scale)",[9],3 (3=41-60%)
same,"Pre-emergence Test IPOHE, percentage damage caused to the plant (five-point scale)",[10],1 (1=0-20%)
same,"percentage damage caused to the plant, AMARE (five-point scale)",[11],3 (3=41-60%)
same,"percentage damage caused to the plant, ZEAMX (five-point scale)",Zea mays (ZEAMX) [12],4 (4=61-80%)
